Experiments:
multiple myeloma = settings: associated with cell cycle arrest and cellular senescence, Delmore et al. (2011); cited from earlier work
[1] = system: NUT (nuclear protein in testis) midline carcinoma (NMC); settings: murine xenograft models of NMC; Filippakopoulos et al. (2010); cited from earlier work
IL-6 = settings: in vivo; cited from earlier work
c-myc = test: Inhibition of c-myc expression (mRNA, real-time PCR) in MV4-11 cells; type: cell-based; set-up: key: Active: Compounds with an IC50 value less than 30 uM were deemed to be active; settings: c-myc mRNA in human AML MV4-11 cells, 3 hours incubation
Method: MV4-11 cells (2.5×10^4 cells) were plated in 96 well U-bottom plates with test compound or DMSO (0.1%), and incubated for 3 hours at 37° C. Cells were then harvested by centrifugation, lysed, and mRNA was isolated using the mRNA catcher plus kit (Invitrogen). Reverse transcription of the mRNA and duplex amplification of the c-myc and cyclophilin cDNAs was performed using the RNA Ultrasense kit (Invitrogen) and a ViiA7 real-time PCR machine (Applied Biosystems). IC50 values were determined from a dose response curve.

Human AML MV-4-11 cells = test: Inhibition of cell proliferation in human AML MV-4-11 cells; type: cell-based; set-up: key: Active: Compounds with an IC50 value less than 30 uM were deemed to be active; settings: 72 hours, CellTiter Aqueous One
Method: MV4-11 cells: 96-well plates were seeded with 5×10^4 cells per well of exponentially growing human AML MV-4-11 (CRL-9591) cells and immediately treated with two-fold dilutions of test compounds, ranging from 30 μM to 0.2 μM. Triplicate wells were used for each concentration, as well as a media only and three DMSO control wells. The cells and compounds were incubated at 37° C., 5% CO2 for 72 hours before adding 20 μL of the CellTiter Aqueous One Solution (Promega) to each well and incubating at 37° C., 5% CO2 for an additional 3-4 hours. The absorbance was taken at 490 nm in a spectrophotometer and the percentage of proliferation relative to DMSO-treated cells was calculated after correction from the blank well. IC50 were calculated using the GraphPad Prism software.

Brd4 bromodomain 1 = molecular target: T1, Brd4 bromodomain 1 (Homo sapiens, UniProt O60885); test: TR-FRET inhibition of tetra-acetylated histone H4 binding to Brd4 bromodomain 1; settings: tetra-acetylated histone H4 peptide and Brd4 bromodomain 1, 2 hours at room temperature
T1 construct: Illustrative results with the first bromodomain of Brd4; made in house; host or cells: E. coli BL21(DE3)
Method: Proteins were cloned and overexpressed with a N-terminal 6×His tag, then purified by nickel affinity followed by size exclusion chromatography. Briefly, E. coli BL21(DE3) cells were transformed with a recombinant expression vector encoding N-terminally Nickel affinity tagged bromodomains from Brd2, Brd3, Brd4. Cell cultures were incubated at 37° C. with shaking to the appropriate density and induced overnight with IPTG. The supernatant of lysed cells was loaded onto Ni-IDA column for purification. Eluted protein was pooled, concentrated and further purified by size exclusion chromatography. Fractions representing monomeric protein are pooled, concentrated, aliquoted, and frozen at −80° C. for use in subsequent experiments.
Binding of tetra-acetylated histone H4 and BET bromodomains was confirmed by a Time Resolved Fluorescence Resonance Energy Transfer (TR-FRET) method. N-terminally His-tagged bromodomains (200 nM) and biotinylated tetra-acetylated histone H4 peptide (25-50 nM, Millipore) were incubated in the presence of Europium Cryptate-labeled streptavidin (Cisbio Cat. #610SAKLB) and XL665-labeled monoclonal anti-His antibody (Cisbio Cat. #61 HISXLB) in a white 96 well microtiter plate (Greiner). For inhibition assays, serially diluted test compound was added to these reactions in a 0.2% final concentration of DMSO. Final buffer concentrations were 30 mM HEPES pH 7.4, 30 mM NaCl, 0.3 mM CHAPS, 20 mM phosphate pH 7.0, 320 mM KF, 0.08% BSA). After 2 hours incubation at room temperature, the fluorescence by FRET was measured at 665 and 620 nm by a SynergyH4 plate reader (Biotek). The binding inhibitory activity was shown by a decrease in 665 nm fluorescence relative to 620 nm. IC50 values were determined from a dose response curve.

[2] = system: bacterial-induced inflammation and sepsis; settings: murine model; Lamotte et al. (2012); cited from earlier work

Row | Structure (SMILES) | FRET activity (<50 uM) (Brd4 bromodomain 1) | further results
1 | Cc1sc2c(c1C)C(c1ccc(Cl)cc1)=N[C@@H](CC(=O)OC(C)(C)C)c1nnc(C)n1-2 [JQ1] | – | antiproliferative effect (multiple myeloma): potent antiproliferator; antitumor activity [1]: potent antitumor activity
2 | CCNC(=O)C[C@@H]1N=C(c2ccc(Cl)cc2)c2cc(OC)ccc2-n2c(C)nnc21 [I-BET] | – | IL-6 expression (IL-6): decrease IL-6 expression
3 | COc1cc(OC)c2c(=O)[nH]c(-c3cc(C)c(CNC(C)=O)c(C)c3)nc2c1 [Example 32, N-(4-(5,7-dimethoxy-4-oxo-3,4-dihydroquinazolin-2-yl)-2,6-dimethylbenzyl)acetamide] | Active | c-myc activity (<30 uM) (c-myc): Inactive; cell proliferation activity (<30 uM) (Human AML MV-4-11 cells): Inactive
4 | COc1cc2c(cc1-c1c(C)noc1C)ncc1[nH]c(=O)n([C@H](C)c3ccccn3)c12 [I-BET151] | – | bacterial-induced inflammation and sepsis [2]: suppress bacterial-induced inflammation and sepsis; IL-6 expression (IL-6): decrease IL-6 expression
5 | COc1cc(OC)c2c(=O)[nH]c(-c3cc(C)c(OCCNC(C)C)c(C)c3)nc2c1 [Example 38, 2-(4-(2-(isopropylamino)ethoxy)-3,5-dimethylphenyl)-5,7-dimethoxyquinazolin-4(3H)-one] | Active | c-myc activity (<30 uM) (c-myc): Active; cell proliferation activity (<30 uM) (Human AML MV-4-11 cells): Active
6 | COc1cc(OCCOCc2cccnc2)cc2nc(-c3cc(C)c(O)c(C)c3)[nH]c(=O)c12 [Example 6, 2-(4-hydroxy-3,5-dimethylphenyl)-5-methoxy-7-[2-(pyridin-3-ylmethoxy)ethoxy]-3H-quinazolin-4-one] | Active | –
7 | Cc1cc(C)c2c(=O)[nH]c(-c3cc(C)c(OCCO)c(C)c3)nc2n1 [Example 13, 2-(4-(2-hydroxyethoxy)-3,5-dimethylphenyl)-5,7-dimethylpyrido[2,3-d]pyrimidin-4(3H)-one] | Active | –
8 | COCCOc1cc(OC)c2c(=O)[nH]c(-c3cc(C)c(O)c(C)c3)nc2c1 [Example 4, 2-(4-hydroxy-3,5-dimethyl-phenyl)-5-methoxy-7-(2-methoxy-ethoxy)-3H-quinazolin-4-one] | Active | –
9 | COc1cc(OC)c2c(=O)[nH]c(-c3cc(OC)c(CCCO)c(OC)c3)nc2c1 [Example 50, 2-[4-(3-hydroxy-propyl)-3,5-dimethoxyphenyl]-5,7-dimethoxy-3H-quinazolin-4-one] | Active | –
10 | COc1cc(OCCOCc2ccccc2)cc2nc(-c3ccc4oc(CO)cc4c3)[nH]c(=O)c12 [Example 21, 7-(2-benzyloxy-ethoxy)-2-(2-hydroxymethyl-benzofuran-5-yl)-5-methoxy-3H-quinazolin-4-one] | Inactive | –
11 | COc1cc(OC)c2c(=O)[nH]c(-c3ccc(OCCO)c4ccccc34)nc2c1 [Example 18, 2-[4-(2-hydroxy-ethoxy)-naphthalen-1-yl]-5,7-dimethoxy-3H-quinazolin-4-one] | Active | –
12 | COc1cc(OC)c2c(=O)[nH]c(-c3cc(C)c(OCCN(C)C=O)c(C)c3)nc2c1 [Example 43, N-(2-(4-(5,7-dimethoxy-4-oxo-3,4-dihydroquinazolin-2-yl) 2,6-dimethylphenoxy)ethyl)-N-methylformamide] | Active | –
13 | COc1cc(OC)c2c(=O)[nH]c(-c3cc(C)c(OCCCCO)c(C)c3)nc2c1 [Example 25, 2-[4-(4-hydroxy-butoxy)-3,5-dimethyl-phenyl]-5,7-dimethoxy-3H-quinazolin-4-one] | Active | –
14 | COc1cc(OC)c2c(=O)[nH]c(-c3ccc(OCCO)cc3)nc2c1 [Example 17, 2-[4-(2-hydroxy-ethoxy)-phenyl]-5,7-dimethoxy-3H-quinazolin-4-one] | Active | –
15 | COc1cc(OC)c2c(=O)[nH]c(-c3cc(C)c(OCCOCc4ccccc4)c(C)c3)nc2n1 [Example 12, 2-(4-(2-(benzyloxy)ethoxy)-3,5-dimethylphenyl)-5,7-dimethoxypyrido[2,3-d]pyrimidin-4(3H)-one] | Inactive | –
16 | COc1cc(OC)c2c(=O)[nH]c(-c3ccc(OCCNC(C)=O)c(C)c3)nc2c1 [Example 39, N-(2-(4-(5,7-dimethoxy-4-oxo-3,4-dihydroquinazolin-2-yl)-2-methylphenoxy)ethyl)acetamide] | Active | –
17 | Cc1cc(-c2nc3cc(Cl)ccc3c(=O)[nH]2)cc(C)c1OCCO [Example 26, 7-chloro-2-(4-(2-hydroxyethoxy)-3,5-dimethylphenyl)quinazolin-4(3H)-one] | Inactive | –
18 | COc1cc(OC)c2c(=O)[nH]c(-c3cc(C)c(OCCNC#N)c(C)c3)nc2c1 [Example 45, N-(2-(4-(5,7-dimethoxy-4-oxo-3,4-dihydroquinazolin-2-yl) 2,6-dimethylphenoxy)ethyl)cyanamide] | Active | –
19 | COc1cc(OC)c2c(=O)[nH]c(-c3cc(C)c(OCCNc4ncccn4)c(C)c3)nc2c1 [Example 47, 2-(3,5-dimethyl-4-(2-(pyrimidin-2-ylamino)ethoxy)phenyl)-5,7-dimethoxyquinazolin-4(3H)-one] | Inactive | –

Reference: patent publication US20130281398A1, “TREATMENT OF DISEASES BY EPIGENETIC REGULATION” (RVX Therapeutics Inc., priority 2012, published 2013)
